# Experimental data from patent US8039420B2, “Fungicidal composition containing acid amide derivative” (Ishihara Sangyo Kaisha, Ltd., priority 2004, dated 2011).
# Tested on: Sphaerotheca fuliginea
# Assay: Test on Preventive Effect Against Cucumber Powdery Mildew
# Conditions: 200 ppm, spray on cucumber (Sagamihanpaku) 1.5-leaf stage; area of sporulation 6 to 7 days after inoculation
# Experimental: In each test, the controlling index was determined on the basis of the following standards:
# Cucumber (cultivar: Sagamihanpaku) was cultivated in a plastic pot having a diameter of 7.5 cm, and when it reached 1.5-leaf stage, 10 ml of a chemical solution having the acid amide derivative of the formula (I) or a salt thereof adjusted to a prescribed concentration, was applied by a spray gun. After the chemical solution dried (the same day as the application or the next day), a suspension of conidia of Sphaerotheca fuliginea was sprayed and inoculated and maintained in a constant temperature chamber at 20° C. From 6 to 7 days after the inoculation, the area of sporulation was investigated, and the controlling index was determined in accordance with the above evaluation standards.
structure (smiles),measurement,value
Cc1nn(C)c(Cl)c1C(=O)NC(C)(C)C(=O)c1ccccc1 [1-34],controlling index,"4 (Area of lesions, length of lesions, number of lesions or area of sporulation is less than 10% of non-treated plot)"
